Measured values from patent publication US20260167614A1, “IDENTIFICATION OF SMALL MOLECULES THAT RECRUIT AND ACTIVATE RNASE L” (UNIVERSITY OF FLORIDA RESEARCH FOUNDATION, INCORPORATED, priority 2022, published 2026).

Legend:
[1] = target: T1, pre-miR-21 mutant and RNase L (Homo sapiens, UniProt Q05823, H672N); assay: Co-immunoprecipitation of mutant pre-miR-21 and RNase L; assay type: binding; settings: base paired mutant pre-miR-21, inactive RNase L
T1 construct: GST (N, cleaved yes); made in house; host or cells: BL21 AI Escherichia coli
T1 sequence (Q05823 1-741 H672N): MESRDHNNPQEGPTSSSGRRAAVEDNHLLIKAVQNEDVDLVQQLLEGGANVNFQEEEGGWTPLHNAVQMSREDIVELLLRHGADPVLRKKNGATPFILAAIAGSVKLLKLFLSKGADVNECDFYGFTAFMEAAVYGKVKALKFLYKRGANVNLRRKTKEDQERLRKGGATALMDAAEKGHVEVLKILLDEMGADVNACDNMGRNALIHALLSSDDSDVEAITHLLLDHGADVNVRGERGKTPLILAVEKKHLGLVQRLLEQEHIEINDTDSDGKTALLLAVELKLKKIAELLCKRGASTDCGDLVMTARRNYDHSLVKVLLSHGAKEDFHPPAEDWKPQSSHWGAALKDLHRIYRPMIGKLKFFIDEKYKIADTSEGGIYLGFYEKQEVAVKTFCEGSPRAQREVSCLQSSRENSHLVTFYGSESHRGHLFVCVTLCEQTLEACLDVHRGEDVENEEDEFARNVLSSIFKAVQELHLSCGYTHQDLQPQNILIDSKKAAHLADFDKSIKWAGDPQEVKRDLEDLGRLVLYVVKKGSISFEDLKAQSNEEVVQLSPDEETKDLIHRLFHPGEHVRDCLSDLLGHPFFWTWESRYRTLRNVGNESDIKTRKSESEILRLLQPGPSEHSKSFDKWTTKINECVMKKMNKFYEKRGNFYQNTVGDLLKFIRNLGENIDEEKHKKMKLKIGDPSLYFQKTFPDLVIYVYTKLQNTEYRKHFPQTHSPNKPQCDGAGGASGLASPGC
Method: Co-Immunoprecipitation of pre-miR-2I and RNase L. Approximately 20,000 cpm of 32P 5′-end labeled WT or mutant pre-miR-21 or an RNA construct where the A-bulge was mutated to a base pair (5′-[…] UGGGCUGU-3′) was folded in 1× RNase L Assay Buffer for 1 min at 95° C. and cooled on ice for 10 min. Following cooling, β-mercaptoethanol (7 mM), ATP (50 μM), and MgCl2 (1 mM) were added to the solution. The solution was aliquoted, and compounds were incubated in solution for 15 min (1% DMSO final concentration). […] Beads were then washed with 1×PBS supplemented with 0.02% (v/v) Tween-20. Radioactive signal in the supernatant and associated with the beads was quantified by a Beckman Coulter LS6500 Liquid Scintillation Counter. Relative RNA enrichment was calculated by comparing the radioactive signal associated with beads compared to the total radioactive signal from the beads plus the supernatant.

[2] = system: MDA-MB-231 cells; assay: RiboTAC cellular uptake quantification; assay type: in vitro ADME
Method: (§1) A time-course for RiboTAC degradation of pre-miR-21 was completed and compared to its cellular permeability. […] Additionally, degradation of pre-miR-21 is first detectable after 48 h of treatment with 7 (FIG. 10B).
(§2) RiboTAC Cellular Uptake Quantification. MDA-MB-231 cells were cultured as described in “Cell Culture” with a final cell density of 13,500 cells per well. Cells were treated with 7 (5 μM) for 0, 0.25, 0.5, 0.75, 1, 2, 3, 6, 12, 24, and 48 hours. Following treatment, cells were rapidly washed with 1×PBS to remove any unincorporated compound. Cells were then detached using 75 μl trypsin, immediately homogenized and flash frozen. The cell homogenate was analyzed using a Sciex 6500 mass spectrometer operated in multiple reaction monitoring mode with the transition m/z=1078.3/900.3. Homogenate drug levels were determined by comparison to a standard curve prepared in untreated cell homogenate. Calculated concentrations, (ng drug)/(ml homogenate) or μM drug inside cell, were fit to a one-phase association model using GraphPad Prism.

[3] = RiboTAC cellular uptake quantification; assay type: in vitro ADME; settings: human, MDA-MB-231 cells; 5 μM in culture medium
Method: as §1, §2

[4] = system: phosphorylation of extracellular signal-regulated kinase (ERK); assay: Western blot of pERK versus ERK (RTK signaling); assay type: cell-based; settings: CRISPR-Control sgRNA MDA-MB-231 cells
Method: Quantification of Protein Levels by Western Blotting. MDA-MB-231 cells were treated as described in “Cell Culture.” After treatment, the medium was removed, and the cells were washed with 1× Dulbecco's phosphate-buffered saline (DPBS). Total protein was extracted using Mammalian Protein Extraction Reagent (M-PER, Thermo Scientific) according to the manufacturer's protocol. Protein concentration was measured using a Pierce Micro BCA Protein Assay kit (Fisher Scientific). Approximately 20 μg total protein was loaded onto a Tris-glycine gel with a 5% polyacrylamide stacking layer and a 10% polyacrylamide resolving layer. The gel was run at 140 V for ˜1.5 h in 1× Running Buffer (25 mM Tris base, pH 8.3, 190 mM glycine, and 0.1% (w/v) SDS). After electrophoresis, the protein was transferred to a PVDF membrane using 1× Transfer Buffer (25 mM Tris base, pH 8.3, 190 mM glycine, and 20% (v/v) methanol). The membrane was then washed with 1×TBST (Tris-buffered saline with 0.1% (v/v) Tween 20) and blocked in a solution of 5% (w/v) milk in 1×TBST for 30 min with shaking at room temperature. The membrane was then incubated overnight at 4° C. in a solution of primary antibody diluted in 1×TBST containing 5% (w/v) milk. […]

[5] = system: pre-miR-21; assay: In vitro cleavage of dually labeled pre-miR-21 with RNase L; assay type: biochemical; settings: incubated with RNase L

## CNC(=O)[C@H](c1ccccc1)N(C)Cc1ccc(-c2cccc(-c3sccc3NC(=O)CCOCCOCCOCCC(=O)NCCN3CCN(c4ccc5nc(-c6c(N)c7c(F)cccc7[nH]c6=O)[nH]c5c4)CC3)c2)cc1 [RiboTAC 7, (S)—N-(2-(4-(2-(4-amino-5-fluoro-2-oxo-1,2-dihydroquinolin-3-yl)-1H-benzo[d]imidazol-6-yl)piperazin-1-yl)ethyl)-3-(2-(2-(3-((2-(4′-((methyl(2-(methylamino)-2-oxo-1-phenylethyl)amino)methyl)-[1,1′-biphenyl]-3-yl)thiophen-3-yl)amino)-3-oxopropoxy)ethoxy)ethoxy)propanamide]
[1]
  co-immunoprecipitation of RNA with RNase L: not its base paired mutant
[2]; 5 μM in culture medium
  time to reach plateau of cellular accumulation: about 8 h
[2]; after 48 h treatment with 5 μM in culture medium
  concentration inside cells: 3.6 ± 1.2 µM
[3]
  half-life at 5 μM: 2.4 h
[4]
  effect on the levels of ERK or pERK: no effect
[5]
  cleavage of pre-miR-21 construct labeled with 6-FAM and BHQ: induced dose-dependent cleavage of pre-miR-21
